Measured values: US20220079944A1, “2H-INDAZOLE DERIVATIVES AS THERAPEUTIC AGENTS FOR BRAIN CANCERS AND BRAIN METASTASES” (BETA PHARMA, INC., priority 2019, published 2022)
Where two headings read alike, the source gives them in different places.

What was measured:
[1] = system: orthotopic U87MG-luc human glioblastoma; assay: Efficacy in combination with temozolomide against orthotopic U87MG-luc human glioblastoma in mice (bioluminescence); type: in vivo; settings: glioblastoma model, combination with TMZ
Experimental: An efficacy and comparison study between Compound 1 and abemaciclib, in combination with temozolomide (TMZ), against orthotopic U87MG-luc human glioblastoma in mice was conducted. In each study, TMZ was dosed PO at 6 mg/kg, QD×5, and either Compound 1 or abemaciclib was dosed PO at 100 mg/kg. Tumor growth was observed by bioluminescence. […] From a broad perspective, the significant differentiation between Compound 1 and abemaciclib in a brain disease model can be traced to their distinct molecular structures. Female Envigo Nude Mice (Hsd:Athymic Nude-Fox1^nu) were used in this study. They were 6-7 weeks old on Day 1 of the experiment. The animals were fed irradiated Harlan 2918.15 Rodent Diet and water ad libitum. Animals were housed in INNOVIVE® disposable ventilated caging with corn cob bedding inside BIOBUBBLE® Clean Rooms that provide H.E.P.A filtered air into the bubble environment at 100 complete air changes per hour. All treatments, body weight determinations, and tumor measurements were carried out in the bubble environment. […] An aliquot of the homogeneous cell suspension was diluted in a trypan blue solution and counted using a Luna automated cell counter. […] Following implantation, an aliquot of the remaining cells was diluted with a trypan blue solution and counted to determine the post-implantation cell viability. […]

[2] = Brain concentration and brain/plasma ratio in mouse after 10 mg/kg p.o.; type: in vivo; settings: for concentration at 2 h / concentration at 4 h / concentration at 8 h / concentration at 24 h: po, 10 mg/kg
P-gp = molecular target: T1, P-gp (Homo sapiens, UniProt P08183); assay: P-gp substrate potential using MDR1-MDCK monolayers (bidirectional permeability +/- valspodar); type: in vitro ADME
T1 construct: expressed in transfected cells; host or cells: MDR1-MDCK (MDCK cells expressing MDR1)
Experimental: The objective of this study was to determine the P-gp substrate potential of one test article using MDR1-MDCK monolayers.
Each determination was performed in duplicate. […] Analytical conditions are outlined in Appendix 1.
Papp=(dCr/dt)×Vr/(A×CA) (1)
Percent Recovery=100×((Vr×Cr^final)+(Vd×Cd^final))/(Vd×CN) (2) • where • dC/dt is the slope of the cumulative concentration in the receiver compartment versus time in μM s^−1; • Vr is the volume of the receiver compartment in cm^3; • Vd is the volume of the donor compartment in cm^3; • A is the area of the insert (1.13 cm^2 for 12-well); • CA is the average of the nominal dosing concentration and the measured 120 minute donor concentration in μM; • CN is the nominal concentration of the dosing solution in μM; • Cr^final is the cumulative receiver concentration in μM at the end of the incubation period; • Cd^final is the concentration of the donor in μM at the end of the incubation period.
Efflux ratio (ER) is defined as Papp (B-to-A)/Papp (A-to-B).

[3] = brain, PO 10 mg/kg, individual animal R1, read-out: Brain Concentration, R1 + 3n
[4] = brain, PO 10 mg/kg, individual animal R2, read-out: Brain Concentration, R2 + 3n
[5] = brain, PO 10 mg/kg, individual animal R3, read-out: Brain Concentration, R3 + 3n
[6] = brain, PO 10 mg/kg, mean, read-out: Brain Concentration, Mean PO
[7] = plasma, PO 10 mg/kg, individual animal R1, read-out: Plasma Concentration, R1 + 3n
[8] = plasma, PO 10 mg/kg, individual animal R2, read-out: Plasma Concentration, R2 + 3n
[9] = plasma, PO 10 mg/kg, individual animal R3, read-out: Plasma Concentration, R3 + 3n
[10] = plasma, PO 10 mg/kg, mean, read-out: Plasma Concentration, Mean PO

T1 sequence (P08183 whole entry): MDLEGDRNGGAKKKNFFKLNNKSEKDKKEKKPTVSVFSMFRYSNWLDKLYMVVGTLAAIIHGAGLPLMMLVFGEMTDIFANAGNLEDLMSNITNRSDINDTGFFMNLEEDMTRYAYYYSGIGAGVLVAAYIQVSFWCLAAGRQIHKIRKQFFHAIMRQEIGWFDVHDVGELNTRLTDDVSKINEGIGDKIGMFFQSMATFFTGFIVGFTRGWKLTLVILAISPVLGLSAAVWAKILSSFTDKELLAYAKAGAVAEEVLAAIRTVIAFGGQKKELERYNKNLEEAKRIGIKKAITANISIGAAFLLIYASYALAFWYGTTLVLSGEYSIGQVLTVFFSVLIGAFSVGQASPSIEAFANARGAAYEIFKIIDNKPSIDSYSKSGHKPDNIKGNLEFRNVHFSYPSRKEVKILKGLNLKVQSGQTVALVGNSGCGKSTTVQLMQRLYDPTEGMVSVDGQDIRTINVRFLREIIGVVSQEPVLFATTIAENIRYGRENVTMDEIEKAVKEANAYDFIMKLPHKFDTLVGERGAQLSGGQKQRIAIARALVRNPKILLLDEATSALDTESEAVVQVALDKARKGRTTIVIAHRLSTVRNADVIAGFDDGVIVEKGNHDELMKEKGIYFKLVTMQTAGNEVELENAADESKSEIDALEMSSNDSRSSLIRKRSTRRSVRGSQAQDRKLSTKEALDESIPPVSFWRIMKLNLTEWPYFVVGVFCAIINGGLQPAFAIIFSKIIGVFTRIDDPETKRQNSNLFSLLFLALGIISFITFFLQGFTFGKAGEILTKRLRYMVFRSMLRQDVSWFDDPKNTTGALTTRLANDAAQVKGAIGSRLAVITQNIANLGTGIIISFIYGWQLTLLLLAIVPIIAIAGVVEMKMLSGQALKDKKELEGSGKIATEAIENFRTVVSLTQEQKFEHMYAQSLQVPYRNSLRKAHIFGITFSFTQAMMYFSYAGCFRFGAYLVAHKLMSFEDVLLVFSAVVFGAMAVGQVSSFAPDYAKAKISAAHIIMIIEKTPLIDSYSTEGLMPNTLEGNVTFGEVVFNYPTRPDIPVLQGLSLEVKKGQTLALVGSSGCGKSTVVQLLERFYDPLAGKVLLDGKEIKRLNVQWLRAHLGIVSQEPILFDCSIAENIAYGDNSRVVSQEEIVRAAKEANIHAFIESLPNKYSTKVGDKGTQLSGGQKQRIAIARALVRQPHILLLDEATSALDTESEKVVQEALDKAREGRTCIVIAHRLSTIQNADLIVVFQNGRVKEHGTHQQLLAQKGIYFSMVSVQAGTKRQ

CCN1CCN(Cc2ccc(Nc3ncc(F)c(-c4ccc5nn(C)c(C(C)C)c5c4)n3)nc2)CC1 [Compound 1, N-(5-((4-ethylpiperazin-1-yl)methyl)pyridin-2-yl)-5-fluoro-4-(3-isopropyl-2-methyl-2H-indazol-5-yl)pyrimidin-2-amine]
In vivo efficacy relative to abemaciclib [1]: superior in vivo efficacy | Brain concentration relative to that of abemaciclib ([2]; 10 mg/kg p.o., higher than abemaciclib): approximately 3 fold | Kp ([2]; PO 10 mg/kg, brain AUC0-last / plasma AUC0-last, read-out: AUC0-last Ratio, brain/plasma (B/P) ratio): 1.43 | Brain AUC0-last ([2]; PO 10 mg/kg, brain, from mean concentrations): 11966 ng·h/g | AUC(0-t) ([2]; PO 10 mg/kg, plasma, from mean concentrations, read-out: Plasma AUC0-last): 8380 ng·h/mL | concentration at 2 h [2, 3]: 954 ng/g | concentration at 2 h [2, 4]: 630 ng/g | concentration at 2 h [2, 5]: 1100 ng/g | concentration at 2 h [2, 6]: 894 ng/g | concentration at 4 h [2, 3]: 1190 ng/g | concentration at 4 h [2, 4]: 1060 ng/g | concentration at 4 h [2, 5]: 1220 ng/g | concentration at 4 h [2, 6]: 1160 ng/g | concentration at 8 h [2, 3]: 1150 ng/g | concentration at 8 h [2, 4]: 1380 ng/g | concentration at 8 h [2, 5]: 1220 ng/g | concentration at 8 h [2, 6]: 1250 ng/g | concentration at 24 h [2, 3]: 9.06 ng/g | concentration at 24 h [2, 4]: 8.64 ng/g | concentration at 24 h [2, 5]: 15.8 ng/g | concentration at 24 h [2, 6]: 11.2 ng/g | concentration at 2 h [2, 7]: 833 ng/mL | concentration at 2 h [2, 8]: 500 ng/mL | concentration at 2 h [2, 9]: 748 ng/mL | concentration at 2 h [2, 10]: 694 ng/mL | concentration at 4 h [2, 7]: 669 ng/mL | concentration at 4 h [2, 8]: 543 ng/mL | concentration at 4 h [2, 9]: 1180 ng/mL | concentration at 4 h [2, 10]: 797 ng/mL | concentration at 8 h [2, 7]: 868 ng/mL | concentration at 8 h [2, 8]: 1030 ng/mL | concentration at 8 h [2, 9]: 722 ng/mL | concentration at 8 h [2, 10]: 873 ng/mL | concentration at 24 h [2, 7]: 4.36 ng/mL | concentration at 24 h [2, 8]: 5.3 ng/mL | concentration at 24 h [2, 9]: 10.6 ng/mL | concentration at 24 h [2, 10]: 6.75 ng/mL | P-gp substrate (P-gp; MDR1-MDCK monolayers, conclusion in words): not a substrate for P-gp | P-gp Substrate Classification (P-gp; MDR1-MDCK, 5 μM, +/− 1 μM valspodar): Negative (ER≥2.0 without valspodar, and reduced by <50% with valspodar: Negative) | recovery at 120 min, 5 μM (P-gp; dog, MDCK-MDR1, pH 7.4, MDR1-MDCK, 5 μM, A-to-B, without valspodar): 22% | Papp A→B at 120 min, 5 μM (P-gp; dog, MDCK-MDR1, pH 7.4, MDR1-MDCK, 5 μM, A-to-B, without valspodar, average, read-out: Papp AVG): 5.34 ×10⁻⁶ cm/s | Papp A→B at 120 min, 5 μM (P-gp; dog, MDCK-MDR1, pH 7.4, MDR1-MDCK, 5 μM, A-to-B, without valspodar, replicate R1, read-out: Papp R1): 5.25 ×10⁻⁶ cm/s | Papp A→B at 120 min, 5 μM (P-gp; dog, MDCK-MDR1, pH 7.4, MDR1-MDCK, 5 μM, A-to-B, without valspodar, replicate R2, read-out: Papp R2): 5.43 ×10⁻⁶ cm/s | recovery at 120 min, 5 μM (P-gp; dog, MDCK-MDR1, pH 7.4, MDR1-MDCK, 5 μM, B-to-A, without valspodar): 51% | Papp B→A at 120 min, 5 μM (P-gp; dog, MDCK-MDR1, pH 7.4, MDR1-MDCK, 5 μM, B-to-A, without valspodar, average, read-out: Papp AVG): 7.77 ×10⁻⁶ cm/s | Papp B→A at 120 min, 5 μM (P-gp; dog, MDCK-MDR1, pH 7.4, MDR1-MDCK, 5 μM, B-to-A, without valspodar, replicate R1, read-out: Papp R1): 7.14 ×10⁻⁶ cm/s | Papp B→A at 120 min, 5 μM (P-gp; dog, MDCK-MDR1, pH 7.4, MDR1-MDCK, 5 μM, B-to-A, without valspodar, replicate R2, read-out: Papp R2): 8.4 ×10⁻⁶ cm/s | recovery at 120 min, 5 μM (P-gp; dog, MDCK-MDR1, pH 7.4, with valspodar 1 μM, MDR1-MDCK, 5 μM, A-to-B, + 1 μM Valspodar): 19% | recovery at 120 min, 5 μM (P-gp; dog, MDCK-MDR1, pH 7.4, with valspodar 1 μM, MDR1-MDCK, 5 μM, B-to-A, + 1 μM Valspodar): 63% | efflux ratio at 120 min, 5 μM (P-gp; dog, pH 7.4, MDR1-MDCK, Papp (B-to-A)/Papp (A-to-B), without valspodar): 1.5
